In assay [1] the target is T1, Cell division protein FtsZ (Bacillus subtilis) (UniProt A5Z1V5).
T1 sequence (whole entry): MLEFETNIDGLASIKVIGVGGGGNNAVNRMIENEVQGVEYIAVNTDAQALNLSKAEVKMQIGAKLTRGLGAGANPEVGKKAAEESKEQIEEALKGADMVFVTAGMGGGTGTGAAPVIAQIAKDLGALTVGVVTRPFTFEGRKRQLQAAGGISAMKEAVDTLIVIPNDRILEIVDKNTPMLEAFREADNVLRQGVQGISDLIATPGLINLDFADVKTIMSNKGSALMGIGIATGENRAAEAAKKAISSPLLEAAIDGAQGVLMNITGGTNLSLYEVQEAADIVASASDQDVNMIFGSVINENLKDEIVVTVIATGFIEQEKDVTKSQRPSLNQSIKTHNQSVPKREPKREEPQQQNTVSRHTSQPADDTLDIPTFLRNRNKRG
As to the kind of experiment: Induction of FtsZ polymerization in Bacillus subtilis assessed as bundling of FtsZ protofilaments at 10 ug/ml preincubated for 15 mins followed by GTP addition measured after 10 mins by TEM analysis. The note with it: dose 10.0 µg/ml, time 25.0 min.

In a further assay the test system is Streptococcus pyogenes. Kind of assay: Antibacterial activity against erythromycin-susceptible Streptococcus pyogenes 1 assessed as bacterial growth inhibition incubated for 20 hrs by CLSI based broth microdilution method. The format is functional. On the technique in general: In broth dilution the organism is exposed to a series of concentrations in liquid medium.

The test system of assay [2] is Staphylococcus aureus. Kind of assay: Induction of membrane potential depolarization in Staphylococcus aureus ATCC25923 measured after 20 mins by diSC35 dye based spectroscopy. The format is functional, organism-based.
For assay [3], the system named is Staphylococcus aureus. As to the kind of experiment: Selectivity ratio of MBC for erythromycin-susceptible Staphylococcus aureus ATCC25923 to MIC for erythromycin-susceptible Staphylococcus aureus ATCC25923. The format is functional.
In assay [4] the test system is Escherichia coli. Kind of assay: Disruption of inner membrane in Escherichia coli ATCC25922 measured after 12 mins by PI staining based analysis. The class given is functional, organism-based.
Another assay deals with Bacillus pumilus. Kind of assay: Antibacterial activity against penicillin-susceptible Bacillus pumilus CMCC63202 assessed as bacterial growth inhibition incubated for 20 hrs by CLSI based broth microdilution method. The format is functional.
In assay [5] the test system is Staphylococcus aureus. As to the kind of experiment: Selectivity ratio of MBC for Staphylococcus aureus clinical isolate to MIC for Staphylococcus aureus clinical isolate. The class given is functional.
Assay [6] has as its system Staphylococcus aureus. As to the kind of experiment: Induction of morphological change in Staphylococcus aureus ATCC25923 assessed as leakage of cell contents at 16 times MIC incubated for 2 hrs by TEM analysis. The format is functional, organism-based.
Assay [7] has as its system Staphylococcus aureus. Kind of assay: Disruption of inner membrane in Staphylococcus aureus ATCC25923 measured after 12 mins by PI staining based analysis. The format is functional, organism-based.
Assay [8] deals with Staphylococcus aureus. Kind of assay: Bactericidal activity against Staphylococcus aureus ATCC25923 assessed as log reduction in bacterial growth at 0.125 ug/ml measured for 6 hrs by time-kill assay. The class given is functional. The note with it: dose 0.125 µg/ml.
In assay [9] the test system is Staphylococcus epidermidis. As to the kind of experiment: Antibacterial activity against penicillin-resistant Staphylococcus epidermidis clinical isolate assessed as bacterial growth inhibition incubated for 20 hrs by CLSI based broth microdilution method. The class given is functional.
Assay [10] relates to Escherichia coli. Kind of assay: Disruption of outer membrane in Escherichia coli ATCC25922 measured after 10 mins by NPN dye based analysis. The format is functional, organism-based. The note with it: dose 4-16 µg/ml.
Assay [11] deals with Escherichia coli. Kind of assay: Induction of membrane potential depolarization in Escherichia coli ATCC25922 measured after 20 mins by diSC35 dye based spectroscopy. The class given is functional, organism-based.
For assay [12], the system named is Staphylococcus aureus. As to the kind of experiment: Antibacterial activity against erythromycin-susceptible Staphylococcus aureus ATCC25923 incubated for 18 to 24 hrs. The format is functional. Particulars: time 18-24 hrs.
For assay [13], the system named is Acinetobacter baumannii. As to the kind of experiment: Selectivity ratio of MBC for Acinetobacter baumannii ATCC19606 to MIC for Acinetobacter baumannii ATCC19606. The class given is functional.
Assay [14] concerns Acinetobacter baumannii. As to the kind of experiment: Antibacterial activity against Acinetobacter baumannii ATCC19606 assessed as bacterial growth inhibition incubated for 20 hrs by CLSI based broth microdilution method. The class given is functional.

These results are taken from ChEMBL document CHEMBL5537115, “New broad-spectrum and potent antibacterial agents with dual-targeting mechanism: Promoting FtsZ polymerization and disrupting bacterial membranes” (Eur J Med Chem, 2024).

Each structure is given as a SMILES string. Activity calls are given as the source filed them. The calls are words filed in the database; no cut-off is given here.

The term MIC denotes the least concentration at which growth counts as inhibited. The MBC is the lowest tested concentration that kills the bacteria rather than only halting them. On to `C[n+]1cc(-c2ccccc2)c(/C=C/c2ccc(C(C)(C)C)cc2)cc1-c1ccc(C(C)(C)C)cc1.[I-]`, for which the outcome (in [1]; with Staphylococcus aureus [6]) was Active. Further, the MIC with Streptococcus pyogenes was found to be 2 µg/mL; in the assay with Bacillus pumilus, 0.062 µg/mL; in [9], 0.5 µg/mL; in the assay on Acinetobacter baumannii [14] it was 0.5 µg/mL. For the same compound, the Activity result in the assay on Staphylococcus aureus [2] was “Dose-Dependent Effect”; in the assay on Escherichia coli [4], “Dose-Dependent Effect”; in the assay with Staphylococcus aureus [7], “Dose-Dependent Effect”; in the assay with Staphylococcus aureus [8], 3.059 log10CFU/ml; with Escherichia coli [10] it was “Dose-Dependent Effect”; with Escherichia coli [11], “Dose-Dependent Effect”. Moreover, the results for the Ratio with Staphylococcus aureus [3], in the assay with Staphylococcus aureus [5] and with Acinetobacter baumannii [13] were 4, 2 and 2, respectively. The minimal bactericidal concentration (MBC) in the assay with Staphylococcus aureus [12] was 0.25 µg/mL.
